Measured values as given in PubChem BioAssay AID651786 (The Scripps Research Institute Molecular Screening Center, 2012).
The source made the active and inactive calls.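 The calls were made as follows: active = IC50 at or below 10 µM; inactive = IC50 above 10 µM.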

Target: Nuclear receptor coactivator 1 (Homo sapiens) (UniProt Q15788)
Assay: SRC1 (NCOA1) coactivator inhibitors, late-stage follow-up, selectivity assay for SRC3 inhibitor project, cell-based, HEK293, GAL4-SRC1 luciferase, powder samples (AID 651786)
Conditions: HEK293 GAL4-SRC1 luciferase reporter, luminescence

Chain of Nuclear receptor coactivator 1 (Homo sapiens) (Q15788 whole entry, looked up, the tested form may be a part): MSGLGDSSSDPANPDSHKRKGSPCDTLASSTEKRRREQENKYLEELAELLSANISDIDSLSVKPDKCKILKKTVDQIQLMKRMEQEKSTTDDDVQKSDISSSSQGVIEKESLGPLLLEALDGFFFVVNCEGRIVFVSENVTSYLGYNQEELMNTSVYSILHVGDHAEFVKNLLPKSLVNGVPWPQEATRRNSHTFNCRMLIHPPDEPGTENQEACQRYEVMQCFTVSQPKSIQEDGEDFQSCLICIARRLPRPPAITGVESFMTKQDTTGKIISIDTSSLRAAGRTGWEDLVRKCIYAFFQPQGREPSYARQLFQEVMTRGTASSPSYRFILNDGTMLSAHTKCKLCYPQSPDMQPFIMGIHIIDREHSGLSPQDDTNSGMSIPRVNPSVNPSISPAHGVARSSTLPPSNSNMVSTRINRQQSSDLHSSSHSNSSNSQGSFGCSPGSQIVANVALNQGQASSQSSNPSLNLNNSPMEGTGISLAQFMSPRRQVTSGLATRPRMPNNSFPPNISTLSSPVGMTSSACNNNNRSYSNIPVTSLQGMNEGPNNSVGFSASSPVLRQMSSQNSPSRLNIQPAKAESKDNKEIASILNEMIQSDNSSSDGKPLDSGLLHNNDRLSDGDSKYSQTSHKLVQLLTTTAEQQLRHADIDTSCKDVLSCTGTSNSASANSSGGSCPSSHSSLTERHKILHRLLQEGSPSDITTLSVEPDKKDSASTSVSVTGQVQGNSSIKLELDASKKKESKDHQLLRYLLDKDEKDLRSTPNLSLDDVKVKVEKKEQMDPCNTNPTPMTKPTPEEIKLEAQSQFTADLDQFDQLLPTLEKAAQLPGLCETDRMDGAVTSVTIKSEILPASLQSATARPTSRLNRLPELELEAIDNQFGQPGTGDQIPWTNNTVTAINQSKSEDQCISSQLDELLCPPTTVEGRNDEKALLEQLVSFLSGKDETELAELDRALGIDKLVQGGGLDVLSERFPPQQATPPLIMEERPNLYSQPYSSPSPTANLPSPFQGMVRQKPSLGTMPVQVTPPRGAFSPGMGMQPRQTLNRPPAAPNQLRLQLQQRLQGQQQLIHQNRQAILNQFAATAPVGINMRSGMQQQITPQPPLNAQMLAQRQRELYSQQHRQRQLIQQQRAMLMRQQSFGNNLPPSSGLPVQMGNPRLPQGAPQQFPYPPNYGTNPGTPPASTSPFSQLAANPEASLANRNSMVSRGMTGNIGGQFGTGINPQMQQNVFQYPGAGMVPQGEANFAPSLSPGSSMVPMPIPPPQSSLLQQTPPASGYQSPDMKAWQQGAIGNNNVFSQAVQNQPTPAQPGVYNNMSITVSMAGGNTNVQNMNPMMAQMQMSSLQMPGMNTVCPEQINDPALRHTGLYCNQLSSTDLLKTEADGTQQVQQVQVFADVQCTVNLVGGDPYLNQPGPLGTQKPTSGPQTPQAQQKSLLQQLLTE

Structure (SMILES) | IC50
OCCN1CCN(C(=S)c2ccc(-c3ccccc3)cc2)CC1 | 3.01 µM
CCCNC(=O)c1nnsc1S(=O)(=O)c1ccc(Cl)cc1 | 6.16 µM
CC(C)(C)c1ccc(-c2noc(CCC(=O)Nc3cccnc3)n2)cc1 | > 35.9 µM (inactive)
CN1C(=O)C2(C(C#N)=C(N)N(c3cc(Cl)cc(Cl)c3)C3=C2C(=O)CCC3)c2ccccc21 (stereo not drawn) | > 35.9 µM (inactive)
O=C(COC(=O)c1ccc[nH]c1=O)Nc1ccc(N2CCCCC2)cc1 | > 35.9 µM (inactive)
Cc1ccc(OCC(=O)c2cc(C)n(-c3ccccc3)c2C)c([N+](=O)[O-])n1 | inactive
O=C(Nc1ccccc1Oc1ccccc1)c1cc([N+](=O)[O-])ccc1Cl | 6.87 µM
CN1C(=O)C2(C(C#N)=C(N)N(c3cc(Cl)cc(Cl)c3)C3=C2C(=O)CC(C)(C)C3)c2ccccc21 (stereo not drawn) | > 35.9 µM (inactive)
